Like-named read-outs stand apart in the source and are kept apart here.
System: 3T3-L1 cells
Experiment: Induction of adipocyte differentiation (amount of triglyceride biosynthesis)
Format: cell-based
Conditions: Mus musculus
Protocol: Induction of adipocyte differentiation was carried out by partially modifying the above-mentioned method of Rubin C. S. et al. In addition, as a test compound, a compound prepared in Examples mentioned above or a commercially available compound was used. 3T3-L1 cells (ATCC CCL-92.1) were suspended in a 10% fetal bovine serum (manufactured by Bio Whittaker)-containing Dulbecco's modified Eagle's medium (manufactured by Sigma, D6046) containing 200 μM ascorbic acid so as to have a density of 4×10^3 cells/mL, and the suspension was put in each well of a 12-well microtiter plate in an amount of 2 ml per well. The cells were cultured at 37° C. for 7 days in the presence of 5% carbon dioxide gas. On the seventh day, the medium was exchanged with a 10% fetal bovine serum (manufactured by Bio Whittaker)-containing Dulbecco's modified Eagle's medium containing 200 μM ascorbic acid and 0.25 μM dexamethasone, and a test compound dissolved in dimethyl sulfoxide in a concentration shown in each of Tables 16 to 19 was added to each well. Here, there were set a group with addition of 4 μL of an aqueous solution containing 5 mg/mL insulin (manufactured by TAKARA BIO INC.) as a positive control, and a group with addition of dimethyl sulfoxide as a negative control. After 45 hours, the medium was exchanged with a 10% fetal bovine serum-containing Dulbecco's modified Eagle's medium containing 200 μM ascorbic acid. A test compound, 2 μL of an aqueous solution containing 5 mg/mL insulin as a positive control, or dimethyl sulfoxide as a negative control was put to each well in the same concentration. The cells were cultured for additional 7 days. In addition, the medium was exchanged on after 2 days and after 5 days, and at that time, a test compound, 2 μL of an aqueous solution containing 5 mg/mL insulin as a positive control, or dimethyl sulfoxide as a negative control was put to each well in the same concentration.
The amount of triglyceride in the adipocytes was determined as an index of induction of differentiation into mature adipocytes, and also, as the evaluation of insulin-mimetic action.
After the termination of the culture, the medium was removed, and the cells were washed twice with a phosphate buffered saline. One milliliter of a solvent of hexane:isopropanol=3:2 was added to the cells. The mixture was allowed to stand at room temperature for 30 minutes, and thereafter the supernatant was collected. The procedures were repeated again, and 2 mL of the supernatant was concentrated to dryness. The precipitate was dissolved in 100 μL of isopropanol, and the amount of triglyceride contained in 10 μL of the solution was determined using a triglyceride E-test (manufactured by Wako Pure Chemical Industries, Ltd., code 432-40201). In addition, all the determinations were carried out twice. The action for induction of differentiation was calculated by the following calculation formula, and shown by four ranks of +++, ++, + and +/−. • S: Amount of triglyceride in the presence of a test compound; • N: Amount of triglyceride in the negative control; and • P: Amount of triglyceride in the positive control; X=(S−N)/(P−N) (Judgment of Action for Induction of Differentiation)

[1] = 3T3-L1, 10 μM, X=(S−N)/(P−N) of amount of triglyceride, P=insulin positive control, read-out: Action for Induction of Differentiation
[2] = 3T3-L1, 30 μM, X=(S−N)/(P−N) of amount of triglyceride, P=insulin positive control, read-out: Action for Induction of Differentiation
[3] = 3T3-L1, 3 μM, X=(S−N)/(P−N) of amount of triglyceride, P=insulin positive control, read-out: Action for Induction of Differentiation
[4] = 3T3-L1, read-out: Action for Induction of Differentiation
[5] = 3T3-L1, 13 μM, X=(S−N)/(P−N) of amount of triglyceride, P=insulin positive control, read-out: Action for Induction of Differentiation

Structure (SMILES) | activation at 10 µM [1] [%] | activation at 30 µM [2] [%] | activation at 3 µM [3] [%] | further results
CC(=O)c1ccc(OCc2ccccc2)c(C/C=C(\C)CCC=C(C)C)c1O [Compound (C070), 2′-hydroxy-3′-geranyl-4′-benzyloxyacetophenone] | 30 to 60 | 60 to 100 |  | 
CC(C)=CCC/C(C)=C/Cc1c(O)ccc2c1OC(c1ccc(O)cc1)CC2=O (stereo not shown) [Prostratol F] | 60 to 100 |  | 60 to 100 | 
CC(=O)c1ccccc1OCc1ccccc1 [Compound (C065), 2′-benzyloxyacetophenone] |  |  |  | activation at 3 µM [4]: 30 to 60%; activation at 10 µM [4]: 60 to 100%; activation at 30 µM [4]: > 100%
CC(C)=CCC/C(C)=C/COc1ccc([C@@H]2CC(=O)c3c(O)cc(O)cc3O2)cc1 [4′-O-Geranylnaringenin] | 60 to 100 | > 100 | 30 to 60 | 
COc1ccc(C=O)c(O)c1CC=C(C)C [Compound (C063), 2-hydroxy-3-prenyl-4-methoxybenzaldehyde] | 60 to 100 | > 100 | 30 to 60 | 
COc1ccc(C(=O)/C=C/C=C(C)C)c(O)c1CC=C(C)C [Compound (C069), 1-(2-hydroxy-3-prenyl-4-methoxyphenyl)-5-methyl-2,4-hexadien-1-one] | > 100 | > 100 | 30 to 60 | 
COc1c2occc2cc2ccc(=O)oc12 [Xanthotoxin] |  |  |  | activation at 13 µM [4]: 30 to 60%; activation at 40 µM [4]: 60 to 100%
C=C(C)C(O)CC/C(C)=C/Cc1c(OC)ccc(C(=O)/C=C/c2ccc(O)cc2)c1O (stereo not shown) [Xanthoangelol G] | > 100 | > 100 | 30 to 60 | 
CC(C)=CCCC1(C)Oc2c(C(=O)/C=C/c3ccc(O)cc3)ccc(O)c2CC1O (stereo not shown) [TB2, 1-(3,4-dihydro-3,5-dihydroxy-2-(3-isohexenyl)-2-methyl-2H-benzopyran-8-yl)-3-(4-hydroxyphenyl)-2-propen-1-one] | > 100 |  | > 100 | 
CC(=O)c1ccc(O)c(C/C=C(\C)CCC=C(C)C)c1O [Compound (C036), 2′,4′-dihydroxy-3′-geranylacetophenone] | 60 to 100 |  | 15 to 30 | 
COc1ccc(C(=O)/C=C/c2cccs2)c(O)c1CC=C(C)C [Compound (C-THP), 1-(2-hydroxy-4-methoxy-3-prenylphenyl)-3-(2-thienyl)-2-propen-1-one] | > 100 |  | 60 to 100 | activation at 1 µM (3T3-L1, 1 μM, X=(S−N)/(P−N) of amount of triglyceride, P=insulin positive control, read-out: Action for Induction of Differentiation): 15 to 30%
COc1ccc2c(c1CC=C(C)C)OC(c1ccc(O)cc1)CC2=O (stereo not shown) [Compound (C034), 7-methoxy-8-prenyl-4′-hydroxyflavanone] | > 100 |  | > 100 | 
COc1ccc(C(=O)/C=C/c2ccc(O)cc2)c2c1CC(C(C)(C)O)O2 (stereo not shown) [TB4, 1-[2,3-dihydro-2-(1-hydroxy-1-methylethyl)-4-methoxy-benzofuran-7-yl]-3-(4-hydroxyphenyl)-2-propen-1-one] | 30 to 60 |  | 30 to 60 | 
COc1ccc(C(=O)/C=C/c2ccc(O)cc2)c(O)c1C [Compound (C023), 4,2′-dihydroxy-3′-methyl-4′-methoxychalcone] |  |  |  | activation at 4 µM (3T3-L1, 4 μM, X=(S−N)/(P−N) of amount of triglyceride, P=insulin positive control, read-out: Action for Induction of Differentiation): 60 to 100%; activation at 13 µM [5]: 60 to 100%
CC(=O)c1ccc(O)c(Cc2ccccc2)c1O [Compound (C054), 2′,4′-dihydroxy-3′-benzylacetophenone] | 30 to 60 |  | 15 to 30 | 
COc1ccc(C(C)=O)c(O)c1C [Compound (C022), 2′-hydroxy-3′-methyl-4′-methoxyacetophenone] |  |  |  | activation at 13 µM [5]: 15 to 30%
COc1ccc(C(=O)/C=C/c2ccc(O)cc2)c(O)c1C/C=C(\C)C/C=C/C(C)(C)O [Compound (C081), 1-[2-hydroxy-3-(7-hydroxy-3,7-dimethyl-2,5-octadienyl)-4-methoxyphenyl]-3-(4-hydroxyphenyl)-2-propen-1-one] | > 100 | > 100 | 60 to 100 | 
C/C(=C\Cc1c(O)ccc(C(=O)/C=C/c2ccc(O)cc2)c1O)CCC(O)C(C)(C)O (stereo not shown) [TB5, 1-[2,4-dihydroxy-3-(6,7-dihydroxy-3,7-dimethyl-2-octenyl)phenyl]-3-(4-hydroxyphenyl)-2-propen-1-one] | > 100 |  | > 100 | 
COc1ccc2c(c1C/C=C(\C)CCC=C(C)C)OC(c1ccc(O)cc1)CC2=O (stereo not shown) [Compound (C082), 8-geranyl-4′-hydroxy-7-methoxyflavanone] | 60 to 100 |  |  | 
CC12CCC(O)C(C)(C)C1Cc1c(O)ccc(C(=O)/C=C/c3ccc(O)cc3)c1O2 (stereo not shown) [TB1, 1-(5,6,7,8,8a,10a-hexahydro-1,7-dihydroxy-8,8,10a-trimethyl-9H-xanthen-4-yl)-3-(4-hydroxyphenyl)-2-propen-1-one] | 60 to 100 |  | > 100 | 
CC(=O)c1ccc(O)c(C/C=C(\C)CC/C=C(\C)CCC=C(C)C)c1O [Compound (C051), 2′,4′-dihydroxy-3′-farnesylacetophenone] |  | 60 to 100 |  | 
